The subject of this assay is non-small cell lung carcinoma A549 cells. Put plainly: Example 2: in-vivo test of spores combined with chemotherapy medicines in A549 tumor-bearing nude mice. On the set-up: species or system Balb/c-nu/nu nude mice. The procedure:
The non-small cell lung carcinoma A549 cells were injected into the subcutaneous positions at femoral lateral parts of right backs of female Balb/c-nu/nu nude mice (5 weeks old, 20 g) by subcutaneous injection. The in-vivo test was performed when the tumor volume was 300 mm^3.
Control group: n=15, and 0.2 ml of PBS buffer was intravenously injected to the tails;
Docetaxel group: n=15, Docetaxel was intravenously injected to the tails on the 4th day and 11th day, the dose was 20 mg/(kg·body weight), and the application dose of Docetaxel was the optimal application dose.
MW-DCG-HNCv-18 spore group: n=15, spores were intravenously injected to the tails, and the dose was 3×10^8/(kg·body weight).
MW-DCG-HNCv-18 spore+Cetuximab group: n=15, MW-DCG-HNCv-18 spores were intravenously injected to the tails on the first day, and the dose was 3×10^8/(kg·body weight); Cetuximab was intravenously injected to the tails on the 4th day and 11th day, the dose was 70 mg/(kg·body weight), and the application dose of Cetuximab was the optimal application dose.
MW-DCG-HNCv-18 spore+[…]: n=15, MW-DCG-HNCv-18 spores were intravenously injected to the tails on the first day, and the dose was 3×10^8/(kg·body weight); Adriacin was intravenously injected to the tails on the 4th day and 11th day, the dose was 10 mg/(kg·body weight), and the application dose of Adriacin was the optimal application dose.
MW-DCG-HNCv-18 spore+Docetaxel group: n=15, MW-DCG-HNCv-18 spores were intravenously injected to the tails on the first day, and the dose was 3×10^8/(kg·body weight); Docetaxel was intravenously injected to the tails on the 4th day and 11th day, and the dose was 20 mg/(kg·body weight).
C. novyi-NT spore+Docetaxel group: n=15, C. novyi-NT spores were intravenously injected to the tails on the first day, and the dose was 3×10^8/(kg·body weight);
Docetaxel was intravenously injected to the tails on the 4th day and 11th day, and the dose was 20 mg/(kg·body weight).
The major diameter (a) and transverse diameter (b) of the transplanted tumors of the nude mice were measured with a vernier caliper, 3 to 4 times a week, the tumor volume of each group was calculated, and the anti-tumor effects of the strains were observed dynamically. At the same time, the body weight, feeding, drinking, mental state, behavior, fur color, excretion and death situations of the tumor-bearing mice were observed and recorded.
The tumor volume (V=½×a×b^2) was calculated according to the measured major diameter and transverse diameter data of the tumors, the curve was drawn and the tumors were observed dynamically. […]
The overall survival time of the tumor-bearing mice: the nude mice in each group after processing were fed until natural death, and the survival time was calculated.

Where [1] appears, read: spores 3×10^8/(kg·body weight) i.v. day 1, drug i.v. 4th and 11th day (Docetaxel 20, Cetuximab 70, Adriacin 10 mg/kg).

The structures appear in SMILES notation.

As to `CC(=O)O[C@@]12CO[C@@H]1C[C@H](O)[C@@]1(C)C(=O)[C@H](O)C3=C(C)[C@@H](OC(=O)[C@H](O)[C@@H](NC(=O)OC(C)(C)C)c4ccccc4)C[C@@](O)([C@@H](OC(=O)c4ccccc4)[C@H]21)C3(C)C` [Docetaxel], for the setting “animals with tumor completely removed/total, spores 3×10^8/kg day 1, drug i.v. 4th and 11th day”, the Cure rate was found to be 0%. Also, under setting [1], the Necrosis rate is recorded as 22.2% and the Tumor inhibition rate is given as 55.9%. Also, the mean survival days (spores 3×10^8/kg day 1, drug i.v. 4th and 11th day, fed until natural death) worked out at 35.5 days.

The record behind these values is patent publication US10314809B2, “Application of derivative of clostridium ghonii” (SHANDONG XINCHUANG BIOTECHNOLOGY CO., LTD., priority 2014, dated 2019).
